# Data from ChEMBL document CHEMBL1133993, “Chemical synthesis of UDP-beta-L-arabinofuranose and its turnover to UDP-beta-L-arabinopyranose by UDP-galactopyranose mutase” (Bioorg Med Chem Lett, 2001).
# System: Escherichia coli
# Experiment: Kinetic constant using the compound as substrate was determined against Escherichia coli UDP-galactopyranose mutase
smiles,measurement,value
O=c1ccn([C@@H]2O[C@H](COP(=O)(O)OP(=O)(O)O[C@H]3O[C@@H](CO)[C@H](O)[C@H]3O)[C@@H](O)[C@H]2O)c(=O)[nH]1,Km,600 µM
same,k cat,12 s⁻¹
O=c1ccn(C2O[C@H](COP(=O)(O)OP(=O)(O)OC3O[C@H]([C@H](O)CO)[C@H](O)[C@H]3O)[C@@H](O)[C@H]2O)c(=O)[nH]1 (some centres undefined),Km,22 µM
same,k cat,27 s⁻¹
